Reference: PMC8040948 (Journal of medicinal chemistry, 2020)
In brackets after ≈: the same amount, converted by molar mass. Entries after “also recorded” stand apart in the source; their conditions may differ. Read-outs that look alike come from different tables or passages of the source.

Key:
[1] = tested on: CCI of the sciatic nerve in adult male ICR mice; conditions: mouse, 10 μmol/kg, ip; ref Mufti et al.[12]; cited from earlier work
[2] = tested on: 46 receptors, transporters, and ion channels; conditions: non-P2YR off-target screen; ref [8],[9]; cited from earlier work
hP2Y14R [3] = target: T1, hP2Y14R (Homo sapiens, UniProt Q15391); assay type: binding; conditions: for fold lower hP2Y14R affinity than 2: relative to reference triazole 2; for fold lower hP2Y14R affinity than 22: relative to reference 22
T1 sequence (Q15391 1-338): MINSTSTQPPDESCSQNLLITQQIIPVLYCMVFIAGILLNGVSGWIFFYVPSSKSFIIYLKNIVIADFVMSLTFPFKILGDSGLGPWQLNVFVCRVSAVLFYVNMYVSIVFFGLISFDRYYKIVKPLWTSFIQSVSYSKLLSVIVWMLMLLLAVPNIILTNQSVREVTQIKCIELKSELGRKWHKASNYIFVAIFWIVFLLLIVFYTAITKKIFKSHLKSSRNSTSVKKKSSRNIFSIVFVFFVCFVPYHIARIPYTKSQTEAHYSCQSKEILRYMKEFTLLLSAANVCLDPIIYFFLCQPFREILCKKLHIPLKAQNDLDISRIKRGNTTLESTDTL

CB2 cannabinoid receptor = CB2 cannabinoid receptor (Homo sapiens, UniProt P34972); test: PDSP functional agonist/antagonist assay, CB2; assay type: cell-based
[4] = Plasma protein binding in three species
CB1 cannabinoid receptor = CB1 cannabinoid receptor (Homo sapiens, UniProt P21554); test: PDSP functional agonist/antagonist assay, CB1; assay type: cell-based
ASP/OVA-sensitized mice = test: Ovalbumin/Aspergillus protease mouse model of allergic asthma, BALF cell counts; conditions: 10 mg/kg ip 30 min prior to allergen challenge, BALF 2 days post-challenge
[5] = Observed solubility in water, DMSO or aqueous DMSO; conditions: for solubility in DMSO at 1 mM: as a zwitterion, 1 mM in DMSO
mP2Y14R [6] = target: T2, mP2Y14R (Mus musculus, UniProt Q9ESG6); conditions: mP2Y14R-expressing HEK293 cells, 1 μM, fluorescence micrographs; ref [12]; cited from earlier work
T2 sequence (Q9ESG6 1-338): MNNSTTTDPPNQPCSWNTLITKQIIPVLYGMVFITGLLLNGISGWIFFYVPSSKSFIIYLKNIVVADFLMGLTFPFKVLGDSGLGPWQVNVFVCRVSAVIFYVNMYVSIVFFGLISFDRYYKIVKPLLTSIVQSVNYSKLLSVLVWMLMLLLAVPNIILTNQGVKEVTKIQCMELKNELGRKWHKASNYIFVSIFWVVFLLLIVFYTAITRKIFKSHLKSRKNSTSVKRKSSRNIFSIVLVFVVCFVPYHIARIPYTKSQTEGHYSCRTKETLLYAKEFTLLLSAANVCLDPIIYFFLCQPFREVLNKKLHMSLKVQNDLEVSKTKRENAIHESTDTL

[7] = Aqueous solubility, pION method
[8] = tested on: CCI of the sciatic nerve in adult male ICR mice; test: Chronic constriction injury; conditions: mouse, 10 μmol/kg, ip
mP2Y14R [9] = target: T2, mP2Y14R; conditions: species comparison
[10] = Relative lipophilicity from RP-HPLC retention time; assay type: physicochemical; conditions: RP-HPLC retention time (C18), 10 to 100% acetonitrile in 10 mM triethylammonium acetate
δ-opioid (DOR) receptor = δ-opioid (DOR) receptor (Homo sapiens, UniProt P41143); test: PDSP off-target binding, DOR
[11] = Pharmacokinetics in the rat, ip and iv
hP2Y14R [12] = target: T1, hP2Y14R; test: Competitive binding assay of CHO-hP2Y14R cells at different pH levels
other P2YRs = conditions: ref [8],[17]; cited from earlier work

Sequence of CB1 cannabinoid receptor (P21554 whole entry): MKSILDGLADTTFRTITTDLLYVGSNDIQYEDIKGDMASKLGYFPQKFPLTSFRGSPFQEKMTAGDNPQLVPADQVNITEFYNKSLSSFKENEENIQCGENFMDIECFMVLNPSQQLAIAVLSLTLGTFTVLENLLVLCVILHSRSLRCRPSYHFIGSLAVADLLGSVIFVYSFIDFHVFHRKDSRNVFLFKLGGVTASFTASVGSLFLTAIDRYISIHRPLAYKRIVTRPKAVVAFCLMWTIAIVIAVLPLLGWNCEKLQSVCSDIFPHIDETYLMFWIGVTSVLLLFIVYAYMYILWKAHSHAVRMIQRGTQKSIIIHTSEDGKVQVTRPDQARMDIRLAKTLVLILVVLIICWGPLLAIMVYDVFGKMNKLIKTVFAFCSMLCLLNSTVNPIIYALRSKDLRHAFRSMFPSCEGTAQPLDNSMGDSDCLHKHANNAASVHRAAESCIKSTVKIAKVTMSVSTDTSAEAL
Sequence of CB2 cannabinoid receptor (P34972 whole entry): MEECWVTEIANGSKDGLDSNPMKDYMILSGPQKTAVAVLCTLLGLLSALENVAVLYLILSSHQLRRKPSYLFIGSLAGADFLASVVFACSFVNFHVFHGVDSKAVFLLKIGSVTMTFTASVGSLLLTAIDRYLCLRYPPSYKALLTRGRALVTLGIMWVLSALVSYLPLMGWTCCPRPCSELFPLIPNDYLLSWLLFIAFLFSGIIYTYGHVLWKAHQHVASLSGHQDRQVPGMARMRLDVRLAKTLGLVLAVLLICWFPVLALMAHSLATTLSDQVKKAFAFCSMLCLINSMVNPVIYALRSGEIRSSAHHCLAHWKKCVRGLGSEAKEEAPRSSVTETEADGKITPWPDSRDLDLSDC
Sequence of δ-opioid (DOR) receptor (P41143 whole entry): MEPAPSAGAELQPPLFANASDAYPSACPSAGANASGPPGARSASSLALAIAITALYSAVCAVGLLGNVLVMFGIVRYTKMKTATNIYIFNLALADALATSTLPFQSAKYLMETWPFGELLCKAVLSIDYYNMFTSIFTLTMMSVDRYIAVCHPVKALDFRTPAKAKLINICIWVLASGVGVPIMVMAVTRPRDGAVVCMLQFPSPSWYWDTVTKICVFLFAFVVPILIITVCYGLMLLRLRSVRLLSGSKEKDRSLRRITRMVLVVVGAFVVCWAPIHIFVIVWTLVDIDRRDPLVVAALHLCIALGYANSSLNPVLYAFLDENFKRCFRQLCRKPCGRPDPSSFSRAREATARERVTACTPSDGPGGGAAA

CC(=O)N1CCC(c2ccc(-c3cc(C(=O)O)cc4cc(-c5ccc(C(F)(F)F)cc5)ccc34)cc2)CC1 [Compound 8, 4-(4-(1-(Acetyl)piperidin-4-yl)phenyl)-7-(4-(trifluoromethyl)phenyl)-2-naphthoic Acid]
efficacy in CCI model [1]: effective

CCCN1CCC(c2ccc(-c3cc(C(=O)O)cc4cc(-c5ccc(C(F)(F)F)cc5)ccc34)cc2)CC1 [Compound 6b, 4-(4-(1-Propylpiperidin-4-yl)phenyl)-7-(4-(trifluoromethyl)phenyl)-2-naphthoic Acid]
off-target interactions [2]: no detected off-target interactions

O=C(O)c1cc(-c2ccc(C34CCNCC3C4(F)F)cc2)cc(-n2cc(-c3ccc(C(F)(F)F)cc3)nn2)c1 (stereo not drawn) [Compound 20, 4′-(7,7-Difluoro-3-azabicyclo[4.1.0]heptan-6-yl)-5-(4-(4-(trifluoromethyl)phenyl)-1H-1,2,3-triazol-1-yl)-[1,1′-biphenyl]-3-carboxylic Acid]
fold lower hP2Y14R affinity than 2 (hP2Y14R [3]): 20 fold

O=C(O)c1cc(-c2ccc(C3CCNCC3)cc2)cc(-c2cn(-c3ccc(C(F)(F)F)cc3)nn2)c1 [Compound 25, 4′-(Piperidin-4-yl)-5-(1-(4-(trifluoromethyl)phenyl)-1H-1,2,3-triazol-4-yl)-[1,1′-biphenyl]-3-carboxylic Acid]
IC50 (CB2 cannabinoid receptor): > 10 µM
plasma protein binding [4]: high
IC50 (CB1 cannabinoid receptor): > 10 µM

O=C(O)c1cc(-c2ccc(C3CCNCC3)cc2)c2ccc(-c3ccc(C(F)(F)F)cc3)cc2c1 [Compound 1, 4-[4-(4-piperidinyl)-phenyl]-7-[4-(trifluoromethyl)phenyl]-2-naphthalenecarboxylic acid, reference compound]
efficacy in CCI model [1]: effective
IC50 (CB2 cannabinoid receptor): > 10 µM
IC50 (CB1 cannabinoid receptor): > 10 µM
effect on eosinophilic airway inflammation (ASP/OVA-sensitized mice): protected; also recorded: strongly attenuated eosinophilic airway inflammation
solubility in DMSO at 1 mM [5]: failed to dissolve
inhibition of intact cell binding of 36 (mP2Y14R [6]): almost completely inhibited

NC(=O)c1ccc(-c2cc(NC(=O)c3ccc(C(F)(F)F)cc3)cc(C(=O)O)c2)cc1 [Compound 27, 4′-Carbamoyl-5-(4-(trifluoromethyl)benzamido)-[1,1′-biphenyl]-3-carboxylic Acid]
fold lower hP2Y14R affinity than 22 (hP2Y14R [3]): 11 fold

NCCOCCOCCOCCOCCOCCOCCC(=O)N1CCC(c2ccc(-c3cc(C(=O)O)cc4cc(-c5ccc(C(F)(F)F)cc5)ccc34)cc2)CC1 [Compound 12, 4-(4-(1-(1-Amino-3,6,9,12,15,18-hexaoxahenicosan-21-oyl)piperidin-4-yl)phenyl)-7-(4-(trifluoromethyl)phenyl)-2-naphthoic Acid]
solubility ([7]; pH 4): 8.02 ± 1.01 µg/mL (≈ 9.89 µM)
solubility ([7]; pH 7.4): 7.16 ± 1.16 µg/mL (≈ 8.83 µM)
fold greater aqueous solubility than 1 ([7]; pH 7.4, relative to 1): ~20 fold
plasma protein binding [4]: high
effect on the hind paw response contralateral to the injury [8]: No effect
time of peak protection post-injection [8]: 1 to 2 h
reversal of CCI-induced mechano-allodynia ([8]; 7 days post-CCI, ipsilateral hind paw): reduced chronic pain; also recorded: fully efficacious
fold greater affinity at the mouse homologue than at the hP2Y14R (mP2Y14R [9]): 2 fold
lipophilicity (Δk), relative to 1 [10]: 0.71 ± 0.03
effect on eosinophilic airway inflammation (ASP/OVA-sensitized mice): inactive
solubility ([5]; water): ≥ 150 mM
IC50 (hP2Y14R [3]; hP2Y14R, IC50 (nM), Table 2, hP2Y14R-CHO cells, values from Tables 1A and 1B): 963 ± 417 nM

O=C(O)c1cc(NC(=O)C23C4C5C2C2C3C4C52CO)cc(-c2ccc(C3CCNCC3)cc2)c1 (stereo not drawn) [Compound 28, 5-(4-(Hydroxymethyl)cubane-1-carboxamido)-4′-(piperidin-4-yl)-[1,1′-biphenyl]-3-carboxylic Acid]
IC50 (hP2Y14R [3]; IC50 (μM), Table 1B, cells that print only footnote mark c): > 100000 nM
IC50 (hP2Y14R [3]; IC50 at hP2Y14R): > 100000 nM

NCCCNC(=O)c1ccc(-c2cc(C(=O)O)cc(-c3cn(-c4ccc(C(F)(F)F)cc4)nn3)c2)s1 [Compound 26, 3-(5-((3-Aminopropyl)carbamoyl)thiophen-2-yl)-5-(1-(4-(trifluoromethyl)phenyl)-1H-1,2,3-triazol-4-yl)benzoic Acid]
Ki (δ-opioid (DOR) receptor): 2.96 µM

O=C(O)c1cc(-c2ccc(C34CCN(CC3)CC4)cc2)c2ccc(-c3ccc(C(F)(F)F)cc3)cc2c1 [Compound 17, 4-(4-(Quinuclidin-4-yl)phenyl)-7-(4-(trifluoromethyl)phenyl)-2-naphthoic Acid]
solubility ([7]; pH 4, aqueous solubility (pH 4.0, μg/mL), Table 5, pH 4.0, mean ± SD, pION method): 14.3 ± 0.5 µg/mL (≈ 28.5 µM)
solubility ([7]; pH 7.4, aqueous solubility (pH 7.4, μg/mL), Table 5, pH 7.4, mean ± SD, pION method): 0.44 ± 0.06 µg/mL (≈ 0.877 µM)
plasma protein binding [4]: high
time at which maximal plasma concentration was reached [11]: 3 to 4 h
plasma concentration at the 12 h time point ([11]; highest dose (10 mg/kg), 12 h): 200 to 400 ng/kg
IC50 (hP2Y14R [12]): 0.0308 ± 0.0022 µM
effect on eosinophilic airway inflammation (ASP/OVA-sensitized mice): protected
solubility [5]: ≥ 1000 µg/mL
solubility in DMSO at 1 mM [5]: readily soluble

O=C(O)c1cc(-c2ccc(C34CCNCC3C4)cc2)cc(-n2cc(-c3ccc(C(F)(F)F)cc3)nn2)c1 (stereo not drawn) [Compound 19, 4′-(3-Azabicyclo[4.1.0]heptan-6-yl)-5-(4-(4-(trifluoromethyl)phenyl)-1H-1,2,3-triazol-1-yl)-[1,1′-biphenyl]-3-carboxylic Acid]
fold lower hP2Y14R affinity than 2 (hP2Y14R [3]): 11 fold

NC(=O)c1ccc(-c2cc(C(=O)O)cc(-c3cn(-c4ccc(C(F)(F)F)cc4)nn3)c2)cc1 [Compound 24, 4′-Carbamoyl-5-(1-(4-(trifluoromethyl)phenyl)-1H-1,2,3-triazol-4-yl)-[1,1′-biphenyl]-3-carboxylic Acid]
fold lower hP2Y14R affinity than 22 (hP2Y14R [3]): 6.2 fold

NCCCNC(=O)c1ccc(-c2cc(C(=O)O)cc(-n3cc(-c4ccc(C(F)(F)F)cc4)nn3)c2)s1 [Compound 23, reference compound]
plasma protein binding [4]: high
effect on eosinophilic airway inflammation (ASP/OVA-sensitized mice): protected

C#CCCCCN1CCC(c2ccc(-c3cc(C(=O)O)cc4cc(-c5ccc(C(F)(F)F)cc5)ccc34)cc2)CC1 [Compound 7a, 4-(4-(1-(Hex-5-yn-1-yl)piperidin-4-yl)phenyl)-7-(4-(trifluoromethyl)phenyl)-2-naphthoic Acid]
off-target interactions [2]: no detected off-target interactions
effect on eosinophilic airway inflammation (ASP/OVA-sensitized mice): protected; also recorded: highest potency of reducing eosinophil infiltration

C[N+]12CCC(c3ccc(-c4cc(C(=O)O)cc5cc(-c6ccc(C(F)(F)F)cc6)ccc45)cc3)(CC1)CC2 [Compound 21, 4-(4-(1-Methylquinuclidin-1-ium-4-yl)phenyl)-7-(4-(trifluoromethyl)phenyl)-2-naphthoate]
plasma protein binding [4]: high

O=C(O)c1cc(-c2ccc(C3CCNCC3)cc2)cc(-n2cc(-c3ccc(C(F)(F)F)cc3)nn2)c1 [Compound 2, reference compound]
off-target interactions [2]: no detected off-target interactions
activity at other P2YRs (other P2YRs): inactive
effect on eosinophilic airway inflammation (ASP/OVA-sensitized mice): inactive

O=C(O)c1cc(-c2ccc(C3CCNCC3)cc2)c2nc(-c3ccc(C(F)(F)F)cc3)[nH]c2c1 [Compound 35, 4-(4-(Piperidin-4-yl)phenyl)-2-(4-(trifluoromethyl)phenyl)-1H-benzo[d]imidazole-6-carboxylic Acid]
IC50 (hP2Y14R [3]; IC50 at hP2Y14R): > 100000 nM
